The values below come from US20060287251A1, “Combination therapy for glycaemic control” (priority 2003, published 2006).

Molecules are shown by their SMILES.

The target of data set [1] is T1, DPIV (N-terminal Xaa-Pro releasing activity) in human plasma (Homo sapiens, UniProt P27487).
T1 construct: Human plasma contains N-terminal Xaa-Pro releasing activity; from tissue; host or cells: human plasma
Kind of data set: Ki-determination in human plasma. The class given is biochemical. How it is done: Human plasma contains N-terminal Xaa-Pro releasing activity. 70 μL glutaminyl pyrrolidine or glutaminyl thiazolidine in an concentration range of 1*10^−5 M -1*10^−7 M (glutaminyl pyrrolidine) and 1*10^−6 M-1*10^−8 M (glutaminyl thiazolidine) respectively were admixed with 50 μL glycylprolyl-4-nitroaniline in different concentrations (0.4 mM, 0.2 mM, 0.1 mM, 0,05 mM) and 100 μl HEPES (40 mM, pH7.6). The assay mixture was pre-incubated at 30 ° C. for 5 min and 22 hours respectively. After pre-incubation, 50 μL human plasma were added and measurement of yellow color development due to 4-nitroaniline release was performed at 30° C. and λ=405 nm for 10 min using a plate reader ([HTS7000 plus, Applied Biosystems, Weiterstadt, Germany). The Ki-values were calculated using Graphit 4.0.15 (Erithacus Software, Ltd, UK) based on a competitive inhibition of DPIV by glutaminyl pyrrolidine or glutaminyl thiazolidine.

The subject of the next data set is diabetic Zucker rats. Kind of data set: Dose escalation study with OGTT in fatty Zucker rats after oral administration. The class given is in vivo, rat. How it is done:
N=30 male Zucker rats (fa/fa), mean age 11 weeks (5-12 weeks), mean body weight 350 g (150-400 g), were purchased from Charles River (Sulzfeld, Germany). After delivery they were kept for >12 weeks until nearly all fatty Zucker rats had the characteristics of manifest diabetes mellitus. A group of N=8 animals were recruited for testing three escalating doses of glutaminyl pyrrolidine vs. placebo (saline). Animals were single-caged under standardized conditions with controlled temperature (22±2° C.) on a 12/12 hours light/dark cycle (light on at 06:00 AM). Sterile standard pelleted chow (ssniff® Soest, Germany) and tap water acidified with HCl were allowed ad libitum. Fatty Zucker rats of 24-31 weeks (mean: 25 weeks) age, adapted to the housing conditions, were well prepared for the study. Catheters were implanted into the carotid artery of fatty Zucker rats under general anaesthesia (i.p. injection of 0.25 ml/kg b.w. Rompun®[2%], BayerVital, Germany and 0.5 ml/kg b.w. Ketamin 10, Atarost GmbH & Co., Twistringen, Germany). The animals were allowed to recover for one week. The catheters were flushed with heparin-saline (100 IU/ml) three times per week.
Placebo (1 ml saline, 0.154 mol/l) or escalating doses of glutaminyl pyrrolidine (5, 15 and 50 mg/kg b.w.) were administered to groups of N=8 fatty Zucker rats. 375 mg of glutaminyl pyrrolidine were dissolved in 1000 μl DMSO (E. Merck, Darmstadt; Germany [Dimethyl sulfoxide p.a.]). 10 mL saline was added and 1 ml aliquots, each containing 34.09 mg of glutaminyl pyrrolidine, were stored at −20° C. For preparation of the test substance, dose dependent aliquots were diluted in saline. After overnight fasting, placebo or test substance were administered to the fatty Zucker rats via feeding tube orally (15 G, 75 mm; Fine Science Tools, Heidelberg, Germany) at −10 min An oral glucose tolerance test (OGTT) with 2 g/kg b.w. glucose (40% solution, B. Braun Melsungen, Melsungen, Germany) was administered at ±O min via a second feeding tube. Venous blood samples from the tail veins were collected at −30 min, −15 min, ±0 min and at 5, 10, 15, 20, 30, 40, 60, 90 and 120 min into 20 lμl glass capillaries, which were placed in standard tubes filled with 1 mL solution for blood glucose measurement. All blood samples were labelled with Code number, Animal Number, Date of sampling and Time of sampling.
Glucose levels were measured using the glucose oxidase procedure (Super G Glucose analyzer; Dr. Müller Gerältebau, Freital, Germany).
Statistical evaluations and graphics were performed with PRISM® 3.02 (GraphPad Software, Inc.). All parameters were analysed in a descriptive manner including mean and SD. […]

Data set [2] can be described thus: In vivo inactivation (degradation) after oral administration to Wistar rats, LC/MS. Conditions: LC/MS of plasma. How it is done: Glutaminyl thiazolidine was administered to Wistar rats orally. After application of placebo or glutaminyl thiazolidine, arterial blood samples were taken at 2.5, 5, 7.5, 10, 15, 20, 40, 60 and 120 min from the carotid catheter of the conscious unrestrained rats to determine the formation of degradation products of glutaminyl thiazolidine. For analysis, simple solid phase extraction procedure on C18 cartridges was used to isolate the compounds of interest from the plasma. The extracts were analysed using reversed-phase liquid chromatography on Lichrospher 60 RP Select B column hyphenated with tandem mass spectrometry operating in the APCI positive mode. An internal standard method was used for quantification.

The target in the next data set is T2, porcine DP II (Sus scrofa, UniProt A0A5G2QK18).
T2 construct: The enzyme used was purified from porcine kidney; from tissue; host or cells: porcine kidney
Kind of data set: Inhibition of DP IV-like enzymes: dipeptidyl peptidase II. The class given is biochemical. Conditions: substrate lysylalanylaminomethylcoumarine, pH 7.6, 30 °C. How it is done:
DP II (3.4.14.2) releases N-terminal dipeptides from oligopeptides if the N-terminus is not protonated (McDonald, J. K., Ellis, S. & Reilly, T. J., 1966, J Biol. Chem., 241, 1494-1501). Pro and Ala in P1-position are preferred residues. The enzyme activity is described as DPIV-like activity, but DP II has an acidic pH-optimum. The enzyme used was purified from porcine kidney. 100 μL glutaminyl pyrrolidine or glutaminyl thiazolidine in an concentration range of 1*10^−4M-5*10^−8M were admixed with 100 μL buffer solution (40 mM HEPES, pH 7.6, 0.015% Brij, 1 mM DTT), 50 μL lysylalanylaminomethylcoumarine solution (5 mM) and 20 μl porcine DP II (250 fold diluted in buffer solution). Fluorescence measurement was performed at 30° C. and λexiatation=380 nm, λemission=465 nm for 25 min using a plate reader (HTS7000 plus, Applied Biosystems, Weiterstadt, Germany).

Setting [3] is: 5, 15 and 50 mg/kg b.w. oral (dose escalation).

T1 sequence (P27487 39-766 limits assumed): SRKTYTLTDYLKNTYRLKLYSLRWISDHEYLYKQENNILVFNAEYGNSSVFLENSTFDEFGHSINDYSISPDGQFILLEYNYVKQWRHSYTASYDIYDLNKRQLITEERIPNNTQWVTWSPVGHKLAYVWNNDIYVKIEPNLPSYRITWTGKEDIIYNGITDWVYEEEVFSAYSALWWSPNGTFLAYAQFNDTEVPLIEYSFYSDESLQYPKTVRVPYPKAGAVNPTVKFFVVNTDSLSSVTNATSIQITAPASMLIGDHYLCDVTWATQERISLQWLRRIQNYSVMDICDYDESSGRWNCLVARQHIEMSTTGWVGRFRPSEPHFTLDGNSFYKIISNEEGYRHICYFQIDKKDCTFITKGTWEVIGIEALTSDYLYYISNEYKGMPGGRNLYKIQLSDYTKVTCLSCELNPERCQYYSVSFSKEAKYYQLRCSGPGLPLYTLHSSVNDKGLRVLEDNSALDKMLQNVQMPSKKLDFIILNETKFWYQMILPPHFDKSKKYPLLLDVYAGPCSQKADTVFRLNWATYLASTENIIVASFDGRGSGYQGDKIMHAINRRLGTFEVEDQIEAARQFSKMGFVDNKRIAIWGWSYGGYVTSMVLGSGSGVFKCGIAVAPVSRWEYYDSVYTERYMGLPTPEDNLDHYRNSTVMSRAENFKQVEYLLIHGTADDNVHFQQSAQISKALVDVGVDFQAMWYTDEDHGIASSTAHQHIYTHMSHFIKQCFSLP
T2 sequence (A0A5G2QK18 28-502): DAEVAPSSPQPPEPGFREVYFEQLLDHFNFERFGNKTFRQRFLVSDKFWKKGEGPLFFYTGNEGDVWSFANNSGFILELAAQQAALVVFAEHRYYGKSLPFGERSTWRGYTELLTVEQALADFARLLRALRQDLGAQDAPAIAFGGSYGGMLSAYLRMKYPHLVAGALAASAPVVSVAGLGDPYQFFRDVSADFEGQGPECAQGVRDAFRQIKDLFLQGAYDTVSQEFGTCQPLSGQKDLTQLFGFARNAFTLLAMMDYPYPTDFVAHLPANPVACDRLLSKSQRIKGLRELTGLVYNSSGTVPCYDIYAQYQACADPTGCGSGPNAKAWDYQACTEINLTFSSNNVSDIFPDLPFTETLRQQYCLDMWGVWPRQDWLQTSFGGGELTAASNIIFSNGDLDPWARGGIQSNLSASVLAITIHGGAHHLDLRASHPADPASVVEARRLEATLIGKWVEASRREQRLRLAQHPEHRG

For the compound `NC(=O)CC[C@H](N)C(=O)N1CCSC1` [glutaminyl thiazolidine], the inhibitory constant (Ki) amounted to 0.403 µM in data set [1] (after 5 min pre-incubation), 0.513 µM in data set [1] (after 22 hours pre-incubation) and 10.7 µM at porcine DP II. Besides, the “blood glucose levels and glucose tolerance in OGTT” value in the data set with diabetic Zucker rats (setting [3]) is “dose dependent lowering of elevated blood glucose levels and improvement of glucose tolerance”. The “degradation product in vivo” value in data set [2] was “pyroglutaminyl thiazolidine”.

On to `NC(=O)CC[C@H](N)C(=O)N1CCCC1` [glutaminyl pyrrolidine], for which the values for the Ki (in data set [1] (after 5 min pre-incubation); in data set [1] (after 22 hours pre-incubation); at porcine DP II) were 1.3 µM, 1.36 µM and 85.2 µM, respectively. Further, the “glucose tolerance in OGTT” value in the data set on diabetic Zucker rats (5 mg/kg b.w. oral, OGTT 2 g/kg glucose) was “limited improvement of glucose tolerance”. Besides, the “blood glucose levels and glucose tolerance in OGTT” value was “Significant lowering of elevated blood glucose levels and improvement of glucose tolerance” in the data set on diabetic Zucker rats (15 mg/kg and 50 mg/kg b.w. oral, OGTT 2 g/kg glucose); “dose dependent lowering of elevated blood glucose levels” in the data set with diabetic Zucker rats (setting [3]). Also, the “degradation product in vivo” value in data set [2] is “pyroglutaminyl pyrrolidine”.
